Test results taken from US20230040247A1, “COMPOUNDS FOR TREATING NEURODEGENERATIVE DISEASES” (Amabiotics, priority 2019, published 2023).

Tested on: endogenous a-synuclein phosphorylation at serine 129
Experiment: huPFFs-induced endogenous a-synuclein phosphorylation at serine 129 in primary cortical cultures (EP1536Y immunofluorescence)
Format: cell-based, mouse
Experimental: The study was designed to evaluate the effects of queuine in an in vitro cell-based experimental model of synucleinopathy. The study aimed to evaluate the impact of queuine on the experimental synucleinopathy, in particular of the Lewy body type, induced by exogenous human preformed a-synuclein fibrils (huPFFs) in cortical cultures of wild-type (WT) mice (Volpicelli-Daley et al. (2011) Neuron. 72:57-7).
Queuine was evaluated for its capability to afford protection against the induction of endogenous a-synuclein phosphorylation at serine 129 (a surrogate marker of de novo a-synuclein aggregation) triggered by exposure to exogenous human recombinant (unphosphorylated) a-synuclein preformed fibrils (huPFFs).
Primary cultures of dissociated cortices from embryonic day E18 WT mouse embryos were used as the biological system. Timed pregnant female mice were received from Charles River Laboratories 2 days before initiation of the primary culture. […] At 30 DIV, the neuronal cultures were fixed with PFA, and the effects of the treatments were evaluated by performing two double immunostainings: • (i) D37A6/Syn1 to detect total rodent a-synuclein/human plus rodent non aggregated a-synuclein; • (ii) EP1536Y/Syn211 to detect rodent and human a-synuclein phosphorylated at S129/total human a-synuclein.
The induction of a-synuclein phosphorylation was quantified by measuring the accumulation of phospho-a-synuclein (length of the phospho-a-synuclein-positive neurite network, number of phospho-a-synuclein positive cell bodies).
The experimental conditions were performed in quadruplicate (for compound-treated conditions+/−huPFFs) and triplicate (for controls+/−huPFFs) wells. An array of nine individual microscopic fields were acquired in each single well, and 3 channels were recorded for each field (green fluorescence excited @488 nm, red fluorescence excited @594 nm, and phase contrast). […]
To further evaluate the effects of queuine, the EP1536Y signal was segmented to quantify the phospho-a-synuclein positive neurites. […]

With “7-(3,4-trans-4,5-cis-dihydroxy-1-cyclopenten-3-ylaminomethyl)-7-deazaguanine [queuine]” as the substance, how does the “effect on untreated neurones (induction of synuclein phosphorylation at S129)” value (WT mouse cortical neurones without huPFFs, concentration range tested (10 μM, 1 μM, 0.1 μM)) read?
Its value is “no effect”.

And the “EP1536Y immunofluorescence signal, representative of the phosphorylation of a-synuclein” value (WT mouse cortical neurons exposed to 10 nM huPFFs, queuine pretreatment at 100 nM compared to control (FIG. 1))?
Its value is “decreased”.

What about the “decrease of a-synuclein phosphorylation at S129 induced by huPFFs” value (huPFFs-treated (10 nM) WT mouse cortical neurones, all doses tested (10 μM, 1 μM, 0.1 μM), normalised to huPFFs condition (FIG. 2), significant) of the same substance?
The value was “approx. −50%”.
